Assay type in all cases: binding
Assay [1] deals with T1, TAO2 (Homo sapiens, UniProt Q9UL54).
T1 construct: screened for activity against several kinases in Jurkat cells; endogenous in cells; host or cells: Jurkat cell lysate
T1 sequence (Q9UL54 1-1235): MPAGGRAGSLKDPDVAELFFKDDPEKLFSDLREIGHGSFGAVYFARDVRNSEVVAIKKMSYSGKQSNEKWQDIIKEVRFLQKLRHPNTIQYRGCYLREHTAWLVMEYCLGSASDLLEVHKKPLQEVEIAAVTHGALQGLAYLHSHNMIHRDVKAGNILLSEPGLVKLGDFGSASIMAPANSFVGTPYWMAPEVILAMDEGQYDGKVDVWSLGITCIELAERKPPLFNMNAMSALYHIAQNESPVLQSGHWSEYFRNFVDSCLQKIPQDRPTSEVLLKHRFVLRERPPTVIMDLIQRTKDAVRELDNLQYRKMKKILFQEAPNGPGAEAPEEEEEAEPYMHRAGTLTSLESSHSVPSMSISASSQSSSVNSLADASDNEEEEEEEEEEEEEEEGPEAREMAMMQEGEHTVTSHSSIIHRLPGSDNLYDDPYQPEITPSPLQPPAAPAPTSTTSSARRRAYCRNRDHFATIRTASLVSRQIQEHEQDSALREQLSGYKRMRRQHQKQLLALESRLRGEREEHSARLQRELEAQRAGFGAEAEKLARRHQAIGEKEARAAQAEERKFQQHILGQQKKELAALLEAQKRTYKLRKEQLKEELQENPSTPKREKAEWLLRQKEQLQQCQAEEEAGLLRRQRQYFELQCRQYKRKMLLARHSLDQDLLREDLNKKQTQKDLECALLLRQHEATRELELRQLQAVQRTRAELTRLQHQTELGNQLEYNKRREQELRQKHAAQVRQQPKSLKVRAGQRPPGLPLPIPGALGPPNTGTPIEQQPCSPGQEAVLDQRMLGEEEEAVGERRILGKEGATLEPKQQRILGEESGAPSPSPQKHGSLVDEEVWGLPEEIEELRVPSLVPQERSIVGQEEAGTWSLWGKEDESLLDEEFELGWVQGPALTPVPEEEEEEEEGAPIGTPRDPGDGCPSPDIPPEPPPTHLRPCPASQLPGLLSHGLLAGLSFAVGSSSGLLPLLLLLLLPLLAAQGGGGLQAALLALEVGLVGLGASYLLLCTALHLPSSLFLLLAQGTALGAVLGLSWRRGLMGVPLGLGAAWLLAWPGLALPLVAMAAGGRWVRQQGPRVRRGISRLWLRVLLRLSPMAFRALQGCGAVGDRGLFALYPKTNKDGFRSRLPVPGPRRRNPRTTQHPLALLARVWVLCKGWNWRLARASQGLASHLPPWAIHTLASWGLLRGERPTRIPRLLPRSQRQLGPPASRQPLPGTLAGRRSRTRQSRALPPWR
Description: Probe-based (AX9989) kinase profiling in Jurkat lysate: TAO2. As to conditions: read-out: TAO2 Inhibition % at indicated screening concentration; for inhibition at 10 µM: screening concentration 10 μM; for inhibition at 1 µM: screening concentration 1 μM. A digest of the protocol: (§1)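 Jurkat lysate (50 mM HEPES pH 7.5, 150 mM NaCl, 0.1% Triton X-100, 20 mM MnCl2) pre-incubated 15 min with compound at room temperature, then labeled with 5 μM acyl phosphate ATP probe AX9989. Tryptic probe-labeled peptides streptavidin-captured and quantified by LC/MS; percent inhibition from decreased fragment intensity versus untreated.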

Assay [2] has as its target T2, ERK5 (Homo sapiens, UniProt Q13164).
T2 construct: screened for activity against several kinases in Jurkat cells; endogenous in cells; host or cells: Jurkat cell lysate
Nature of the assay: Probe-based (AX9989 acyl phosphate ATP probe) kinase profiling in Jurkat lysate: ERK5. The conditions noted are these: for IC50: calculated from percent inhibition and screening concentration, Jurkat lysate, AX9989 probe; for inhibition at 10 µM: screening concentration 10 μM; for inhibition at 10 µM / inhibition at 1 µM: read-out: ERK5 Inhibition % at indicated screening concentration; for inhibition at 1 µM: screening concentration 1 μM. A digest of the protocol:
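ERK5 IC50 values came from percent inhibition at the screening concentration, measured as loss of LC/MS signal of probe-labelled active-site peptides. Compound was added for 15 min at room temperature to Jurkat lysate (5 mg/ml, 20 mM MnCl2) before labelling with AX9989 ATP acyl phosphate probe at 5 μM.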

In assay [3] the test system is AMPKa1 or AMPKa2. Description: Probe-based (AX9989) kinase profiling in Jurkat lysate: AMPKa1 or AMPKa2. Summed up: as §1
In assay [4] the target is T3, AurA (Homo sapiens, UniProt O14965).
T3 construct: screened for activity against several kinases in Jurkat cells; endogenous in cells; host or cells: Jurkat cell lysate
T3 sequence (O14965 1-403): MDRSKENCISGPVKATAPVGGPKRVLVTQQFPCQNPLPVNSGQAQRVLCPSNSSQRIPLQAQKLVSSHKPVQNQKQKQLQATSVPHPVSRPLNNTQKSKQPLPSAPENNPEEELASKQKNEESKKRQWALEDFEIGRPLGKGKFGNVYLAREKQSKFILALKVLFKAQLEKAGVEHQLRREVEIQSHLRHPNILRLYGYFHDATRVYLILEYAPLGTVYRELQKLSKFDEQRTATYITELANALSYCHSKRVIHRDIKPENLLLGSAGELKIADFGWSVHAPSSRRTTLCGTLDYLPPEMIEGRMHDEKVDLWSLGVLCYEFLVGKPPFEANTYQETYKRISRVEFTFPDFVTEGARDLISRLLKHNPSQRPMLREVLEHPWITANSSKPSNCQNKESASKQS
Description: Probe-based (AX9989) kinase profiling in Jurkat lysate: AurA. As to conditions: read-out: AurA Inhibition % at indicated screening concentration; for inhibition at 10 µM: screening concentration 10 μM; for inhibition at 1 µM: screening concentration 1 μM. A digest of the protocol:
as §1

Bounds are passed on as bounds.

T2 sequence (Q13164 whole entry): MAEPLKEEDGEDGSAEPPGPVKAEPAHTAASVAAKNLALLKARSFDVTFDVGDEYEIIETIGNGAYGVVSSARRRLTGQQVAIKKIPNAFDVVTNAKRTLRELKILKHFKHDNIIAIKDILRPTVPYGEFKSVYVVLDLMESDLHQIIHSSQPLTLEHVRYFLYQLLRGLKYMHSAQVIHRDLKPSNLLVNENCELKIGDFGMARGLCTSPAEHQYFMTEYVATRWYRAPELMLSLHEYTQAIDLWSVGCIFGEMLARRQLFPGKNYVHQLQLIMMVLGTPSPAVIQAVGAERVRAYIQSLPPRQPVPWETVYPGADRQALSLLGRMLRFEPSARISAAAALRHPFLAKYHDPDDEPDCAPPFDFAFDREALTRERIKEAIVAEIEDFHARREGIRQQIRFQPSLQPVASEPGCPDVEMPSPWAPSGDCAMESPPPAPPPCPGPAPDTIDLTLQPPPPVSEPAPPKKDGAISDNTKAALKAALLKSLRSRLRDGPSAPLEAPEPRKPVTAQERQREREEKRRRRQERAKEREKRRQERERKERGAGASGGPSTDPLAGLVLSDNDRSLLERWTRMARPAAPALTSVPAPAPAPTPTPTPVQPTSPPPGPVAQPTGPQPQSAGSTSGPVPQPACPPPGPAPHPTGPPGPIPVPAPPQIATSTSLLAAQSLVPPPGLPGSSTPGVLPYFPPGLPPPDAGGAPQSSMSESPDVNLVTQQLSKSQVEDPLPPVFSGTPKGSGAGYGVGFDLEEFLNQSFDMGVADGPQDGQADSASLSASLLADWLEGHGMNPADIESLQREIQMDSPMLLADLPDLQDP

What is called IC50 is the point on the concentration scale where inhibition reaches its midpoint. Take `CCOc1cc(C(=O)N2CCC(NCCF)C2)ccc1Nc1cc2c(cn1)N(C)C(C(F)(F)F)c1ccccc1N2C` (centres unmarked) [Compound T54]: the results for the inhibition at 10 µM in assay [1], in assay [2] and in assay [4] were no more than 35%, 50 to 75% and no more than 35%, respectively. The IC50 in assay [2] was greater than 500 nM. Besides, in assay [3] (screening concentration 10 μM), the “AMPKa1 or AMPKa2 Inhibition % at indicated screening concentration” value (from here on “AMPKa1 or AMPKa2 Inhibition %”) was “E (E is ≦35%)”.
Turning to `CCOc1cc(C(=O)N2CCN(c3cccnc3)CC2)ccc1Nc1cc2c(cn1)N(C)C(=O)c1occc1N2C` [Compound T56], the inhibition at 1 µM was no more than 35% in assay [1], greater than 90% in assay [2] and no more than 35% in assay [4]. The IC50 in assay [2] is no more than 50 nM. Further, the “AMPKa1 or AMPKa2 Inhibition %” value in assay [3] (screening concentration 1 μM) was “E (E is ≦35%)”.
For `CCOc1cc(C(=O)N[C@H]2CC[C@H](O)CC2)ccc1Nc1cc2c(cn1)N(C)C(=O)c1ccccc1N2C` [Compound T62], the inhibition at 1 µM in assay [1] was no more than 35%; in assay [2], 75 to 90%; in assay [4] it was no more than 35%. For the same compound, the IC50 in assay [2] was 101 to 500 nM. The “AMPKa1 or AMPKa2 Inhibition %” value in assay [3] (screening concentration 1 μM) is reported as “E (E is ≦35%)”.
On to `CCOc1cc(C(=O)N[C@H]2CC[C@@H](O)CC2)ccc1Nc1cc2c(cn1)N(C)C(=O)c1ccccc1N2C` [Compound T63], for which the inhibition at 1 µM in assay [1] is no more than 35%; in assay [2], 75 to 90%; in assay [4], no more than 35%. Moreover, the IC50 in assay [2] was 101 to 500 nM. In addition, in assay [3] (screening concentration 1 μM), the “AMPKa1 or AMPKa2 Inhibition %” value is “E (E is ≦35%)”.
Consider `CCOc1cc(C(=O)N(C)[C@H]2CC[C@H](O)CC2)ccc1Nc1cc2c(cn1)N(C)C(=O)c1ccccc1N2C` [Compound T64], for which the inhibition at 1 µM in assay [1] was no more than 35%; in assay [2], greater than 90%; in assay [4], no more than 35%. Moreover, the IC50 in assay [2] is 50 to 100 nM. The “AMPKa1 or AMPKa2 Inhibition %” value in assay [3] (screening concentration 1 μM) is “E (E is ≦35%)”.
For the compound `CN1CCC(N2CCN(C(=O)c3ccc(Nc4cc5c(cn4)N(C)C(=O)c4ccccc4N5C)c(F)c3)CC2)CC1` [Compound T70], the inhibition at 1 µM in assay [1] is no more than 35%; in assay [2] it was greater than 90%; in assay [4], no more than 35%. Further, in assay [2], the IC50 was no more than 50 nM. For the same compound, the “AMPKa1 or AMPKa2 Inhibition %” value in assay [3] (screening concentration 1 μM) is on record as “E (E is ≦35%)”.
With `CN1CCC(N2CCN(C(=O)c3ccc(Nc4cc5c(cn4)N(C)C(=O)c4ccccc4N5C)c(OC(F)F)c3)CC2)CC1` [Compound T76], the inhibition at 1 µM is no more than 35% in assay [1], greater than 90% in assay [2] and no more than 35% in assay [4]. The IC50 in assay [2] was no more than 50 nM. For the same compound, the “AMPKa1 or AMPKa2 Inhibition %” value in assay [3] (screening concentration 1 μM) was “E (E is ≦35%)”.
Consider `CN1C(=O)c2c(F)cccc2Oc2cc(N[C@H]3CC[C@H](O)CC3)ncc21` [Compound T92], for which the results for the inhibition at 10 µM in assay [1], in assay [2] and in assay [4] were 50 to 75%, greater than 90% and no more than 35%, respectively. Besides, the IC50 in assay [2] is 101 to 500 nM. Besides, in assay [3] (screening concentration 10 μM), the “AMPKa1 or AMPKa2 Inhibition %” value is recorded as “E (E is ≦35%)”.
For `COc1cccc2c1Oc1cc(N[C@H]3CC[C@H](O)CC3)ncc1N(C)C2=O` [Compound T95] the same measures were 50 to 75%, greater than 90%, no more than 35%, greater than 500 nM and “D (D is >35% to ≦50%)”.
For `CN1C(=O)c2c(F)ccc(F)c2Oc2cc(N[C@H]3CC[C@H](O)CC3)ncc21` [Compound T97], in that order: 50 to 75%, greater than 90%, no more than 35%, greater than 500 nM and “E (E is ≦35%)”.
For `CCOc1cc(C(=O)N2CCN(C3CCN(C)CC3)CC2)ccc1Nc1cc2c(cn1)N(C)C(=O)c1ccccc1O2` [Compound T98] the same measures were no more than 35%, greater than 90%, no more than 35%, 101 to 500 nM and “E (E is ≦35%)”.
For the compound `CCOc1cc(C(=O)N2CCN(C3CCN(C)CC3)CC2)ccc1Nc1cc2c(cn1)N(C)C(=O)c1c(F)cccc1O2` [Compound T102], the results for the inhibition at 10 µM in assay [1], in assay [2] and in assay [4] were no more than 35%, greater than 90% and no more than 35%, respectively. Also, the IC50 in assay [2] was 101 to 500 nM. Besides, the “AMPKa1 or AMPKa2 Inhibition %” value in assay [3] (screening concentration 10 μM) is recorded as “E (E is ≦35%)”.
As to `C[C@@H]1C[C@H](Nc2cc3c(cn2)N(C)C(=O)c2ccccc2N3C)CC[C@H]1O` [Compound T115], the inhibition at 10 µM in assay [1] was no more than 35%; in assay [2], greater than 90%; in assay [4], no more than 35%. Further, in assay [2], the IC50 is 101 to 500 nM. Besides, in assay [3] (screening concentration 10 μM), the “AMPKa1 or AMPKa2 Inhibition %” value is reported as “E (E is ≦35%)”.

The record behind these values is US20170008888A1 (KYORIN PHARMACEUTICAL CO., LTD., priority 2014, published 2017).
